Test [1] in a line: Luminescence-based dose response cell-based high throughput screening assay for cytotoxic compounds using the IEC-6 intestinal epithelial cell line. [Related pubchem assays: 1858 (Summary AID.), 1825 (Counterscreen.), 1907 (Confirmation screen.)]. In kind it is functional. For orientation: The purpose of a counterscreen is to sort out artefacts and off-target activity.
Test [2] is described as follows: control 3'UTR Renilla luciferase suppression, dose response, counter-screen for Shn3 inhibitor project, cell-based, Clone20-Shn3RL, cherry-picked (AID 624133). It is filed as functional.
The nature of test [3]: Shn3 3'UTR reporter inhibitors, dose response, cell-based, Clone20 osteoblasts, firefly luciferase, cherry-picked (AID 624132).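 Note: firefly luciferase luminescence from reporter carrying the Shn3 3'UTR in osteoblasts.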 It is filed as functional.
The nature of test [4]: inhibitors of SNCA 5'UTR-driven translation, confirmation, luminescence, H4 neuroglioblastoma cells, dose confirmation (AID 2454).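 Note: H4 neuroglioblastoma cells carrying an alpha-synuclein 5'UTR luciferase reporter; potency for inhibition of the luciferase signal.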 It is filed as functional, cell-based.
The nature of test [5]: cytotoxicity in HEK-293T cells, dose response, cytotoxicity control for TCR NF-kB inhibitor project, luminescence, T-cell screen hits (AID 489026).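 Note: cells exposed to compound about 14 hours before the viability readout.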 In kind it is functional, cell-based.
A short description of test [6]: Luminescence Cell-Based Dose Response HTS to Identify Inhibitors of 5'UTR Stem-Loop Driven Prion Protein mRNA Translation in H4 Neuroglioblastoma Cells. [Related pubchem assays: 1827 (Project Summary), 1813 (Primary HTS)]. It is filed as functional.
Test [7] addresses Scavenger receptor class B member 1 (Mus musculus, UniProt Q61009). Description: inhibitors of SR-BI mediated HDL lipid uptake, dose response, ldlA[mSR-BI] cells, fluorescence, cherry pick (AID 493194).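 Note: cellular uptake of fluorescent DiI-labeled HDL measured as cell fluorescence.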 In kind it is functional, cell-based.
The nature of test [8]: inhibitors of SNCA 5'UTR-driven reporter translation, confirmation, H4 neuroglioma cells, luminescence (AID 1988). It is filed as functional, cell-based.
A short description of a further test: cells. It is filed as functional, cell-based.
Test [9] is described as follows: luciferase reporter signal reduction – luminescence, H4-C neuroglioblastoma cells, dose response (AID 2458).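 Note: H4 neuroglioblastoma cells stably carrying a luciferase reporter gene fusion.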 It is filed as functional, cell-based. On the technique in general: In a reporter assay the amount or activity of a reporter protein is the signal.
In the next test the target is T1, ORF 73 (Human herpesvirus 8, UniProt O40947).
T1 sequence (O40947 whole entry): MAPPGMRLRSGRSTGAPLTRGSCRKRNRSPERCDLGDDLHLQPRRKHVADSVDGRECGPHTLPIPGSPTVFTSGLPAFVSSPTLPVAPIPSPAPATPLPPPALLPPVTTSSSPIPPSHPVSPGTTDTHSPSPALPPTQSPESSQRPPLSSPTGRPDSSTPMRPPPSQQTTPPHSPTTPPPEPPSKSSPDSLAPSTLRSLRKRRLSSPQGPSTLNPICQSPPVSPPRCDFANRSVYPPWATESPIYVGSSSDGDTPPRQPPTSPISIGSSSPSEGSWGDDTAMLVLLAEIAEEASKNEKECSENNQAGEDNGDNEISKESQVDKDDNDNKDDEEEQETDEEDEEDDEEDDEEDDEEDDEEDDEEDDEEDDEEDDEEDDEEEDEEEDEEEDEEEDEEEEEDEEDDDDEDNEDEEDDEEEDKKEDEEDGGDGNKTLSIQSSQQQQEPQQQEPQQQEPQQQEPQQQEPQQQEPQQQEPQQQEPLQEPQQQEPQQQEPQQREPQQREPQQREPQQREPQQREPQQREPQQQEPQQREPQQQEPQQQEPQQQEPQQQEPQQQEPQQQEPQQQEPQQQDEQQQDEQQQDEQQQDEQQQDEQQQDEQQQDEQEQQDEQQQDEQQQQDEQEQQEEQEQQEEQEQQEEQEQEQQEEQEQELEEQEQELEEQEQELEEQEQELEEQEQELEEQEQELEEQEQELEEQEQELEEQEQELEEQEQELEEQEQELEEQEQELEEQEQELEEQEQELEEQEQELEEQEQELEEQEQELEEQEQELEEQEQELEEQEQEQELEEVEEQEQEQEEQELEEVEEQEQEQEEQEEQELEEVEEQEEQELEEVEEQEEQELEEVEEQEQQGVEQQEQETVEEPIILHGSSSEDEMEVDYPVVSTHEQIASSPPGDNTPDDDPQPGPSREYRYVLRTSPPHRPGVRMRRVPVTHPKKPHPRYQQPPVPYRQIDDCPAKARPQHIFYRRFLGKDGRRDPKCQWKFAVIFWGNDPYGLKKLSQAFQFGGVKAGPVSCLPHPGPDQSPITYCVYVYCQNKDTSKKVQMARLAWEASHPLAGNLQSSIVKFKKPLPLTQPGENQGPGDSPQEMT
Description: inhibitors of C-LANA binding to LBS DNA, dose response, biochemical, fluorescence polarization, cherry-picked samples (AID 504725).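 Note: fluorescence polarization of a labeled DNA duplex reporting LANA DNA binding; potency is for inhibitors that block LANA binding to the DNA.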 Also on record: species or system Human gammaherpesvirus 8.

In a further test the target is T2, Caspase-6 (Homo sapiens, UniProt P55212).
T2 sequence (P55212 whole entry): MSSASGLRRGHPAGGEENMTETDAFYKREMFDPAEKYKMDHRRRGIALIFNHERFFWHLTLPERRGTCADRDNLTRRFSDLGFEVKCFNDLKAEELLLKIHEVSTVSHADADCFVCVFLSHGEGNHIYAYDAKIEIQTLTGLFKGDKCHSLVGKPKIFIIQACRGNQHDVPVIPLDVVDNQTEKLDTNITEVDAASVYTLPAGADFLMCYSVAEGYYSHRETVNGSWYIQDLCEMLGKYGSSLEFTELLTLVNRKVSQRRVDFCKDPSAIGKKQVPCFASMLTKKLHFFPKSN
The test is described as follows: human caspase-6 inhibitors, dose response, biochemical, VEID-R110 fluorescence, cherry-pick (AID 720632).

The next test deals with HeLa. Description: HeLa cell cytotoxicity, dose response, cytotoxicity control, 24 h, cherry-picked samples (AID 504726).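 Note: potency for cytotoxicity as loss of luminescence signal.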 In kind it is functional, cell-based. The conditions noted are these: Homo sapiens.
The next test has as its system CHO. Description: cytotoxicity in TLR9-MyD88 CHO cells, dose response, cytotoxicity control for TLR9-MyD88 binding inhibitor project, cell-based, luminescence (AID 588339).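 Note: CHO cells stably coexpressing TLR9 and MyD88 fusions from primary screen; compound exposure lasted 48 hours before viability readout.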 It is filed as functional, hamster. As to conditions: Cricetulus griseus.
The target of test [10] is Dual specificity protein phosphatase 3 (Homo sapiens, UniProt P51452). The test is described as follows: VHR1 inhibitor Ki determination, SAR follow-up, biochemical, colorimetric (AID 2004).

Calls of active or inactive are those of the source.

Sequence of Scavenger receptor class B member 1 (Q61009 whole entry): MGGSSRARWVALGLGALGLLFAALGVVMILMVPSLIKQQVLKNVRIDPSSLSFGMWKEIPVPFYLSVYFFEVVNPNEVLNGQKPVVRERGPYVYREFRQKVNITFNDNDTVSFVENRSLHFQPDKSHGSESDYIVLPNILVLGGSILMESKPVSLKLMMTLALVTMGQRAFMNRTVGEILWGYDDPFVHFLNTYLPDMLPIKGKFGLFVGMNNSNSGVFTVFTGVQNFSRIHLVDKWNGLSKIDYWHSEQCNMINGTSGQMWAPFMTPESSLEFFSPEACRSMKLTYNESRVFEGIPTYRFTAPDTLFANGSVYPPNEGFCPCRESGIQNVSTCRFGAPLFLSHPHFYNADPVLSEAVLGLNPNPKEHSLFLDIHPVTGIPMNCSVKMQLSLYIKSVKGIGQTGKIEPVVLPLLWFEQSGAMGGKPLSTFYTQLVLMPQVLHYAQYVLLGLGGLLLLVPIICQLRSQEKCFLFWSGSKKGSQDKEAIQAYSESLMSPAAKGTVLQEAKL
Sequence of Dual specificity protein phosphatase 3 (P51452 whole entry): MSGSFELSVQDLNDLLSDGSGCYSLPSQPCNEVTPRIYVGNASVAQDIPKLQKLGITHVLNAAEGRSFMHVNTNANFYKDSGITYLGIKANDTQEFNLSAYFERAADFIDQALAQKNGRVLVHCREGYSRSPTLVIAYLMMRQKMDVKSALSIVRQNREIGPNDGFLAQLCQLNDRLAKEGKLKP

In the case of `CCCCCOC(=O)c1[nH]c2c(c1C)C(=O)CC(c1ccco1)C2` (stereo not given), the 50% inhibitory concentration (IC50) (commonly the concentration at which inhibition is half-maximal) in [1] was 101 nM (active); in [5] it was > 80 µM (inactive). Besides, the half-maximal activity concentration (AC50) – broadly, the midpoint of the concentration-response curve, whichever way the signal moves – is 3.96 µM (active) in [2], 1.49 µM (active) in test [3] and 33.3 µM (active) in test [7]. The concentration giving a half-maximal response (EC50) (usually the midpoint of the concentration-response curve) was 133 nM (active) in [4]; 9.81 µM (active) in [6]; < 100 nM (active) in test [8]; 179 nM (active) in the test “cells”; 198 nM (active) in [9].

Turning to `Cc1ccc(C(=O)O)cc1N1C(=O)c2cccc3c([N+](=O)[O-])ccc(c23)C1=O`, the concentration at half-maximal activity (AC50) at ORF 73 is 35 µM (active); at Caspase-6, 10.3 µM (active); in the test on HeLa, 67.1 µM (active). Further, the IC50 in the test with CHO is 22.4 µM (inactive).

`CN1C(=O)C(=Cc2ccc(N3CCCC3)c([N+](=O)[O-])c2)C(=O)N(C)C1=O`: the Ki (commonly a measure of affinity in units of concentration, obtained from inhibition or displacement) in test [10] was 24.5 µM (inactive).

The record behind these values is ChEMBL document CHEMBL1201862, “PubChem BioAssay data set” (2004).
